The results in this text go back to patent publication US20240025919A1, “AZA-TETRACYCLIC OXAZEPINE COMPOUNDS AND USES THEREOF” (Genentech, Inc., priority 2022, published 2024).

One assay addresses KRAS G12D (Homo sapiens (Human), UniProt P01116, G12D). The experiment in a line: KRAS G12D LoEnz Biochemical Assay, BODIPY-GDP Exchange TR-FRET (SOS1-mediated nucleotide exchange). The following applies: read-out: KRas (G12D) GDP HTRF IC50. How it is done: Example 500: KRAS G12D LoEnz Biochemical Assay, BODIPY-GDP Exchange TR-FRET. Biochemical compound potencies are assessed by evaluating inhibition of SOS1I-mediated nucleotide exchange in KRAS G121D. In this assay, the SOS1-promoted exchange of fluorescently-labeled GDP (BOPIDY-GDP) is monitored by time-resolved fluorescence resonance energy transfer (TR-FRET). Compounds solubilized in DMS0 are dispensed as concentration series into 384-well white assay plates. A preformed complex of biotin-tagged recombinant human KRAS (0.06 nM mutant G1 2D) and 0.06 nM terbium-labeled streptavidin (CisBIO) prepared in 10 uL/well assay buffer (20 mM HEPES, pH 7.5, 50 mM NaCl, 10 mMMMgCl2, 0.0100 Tween-20 and 1 mM dithiothreitol) is added and allowed to incubate for 10-minutes at room temperature. The reaction is initiated with the addition of 5 uL 300 nM recombinant human SOS1 and 300 nM BODIPY-GDP in assay buffer. After a 120-minute incubation, the fluorescence is measured with excitation at 337 nm and emission at 490 and 520 nm. The TR-FRET ratio is determined as the fluorescence at 520 nm divided by the fluorescence at 490 nm multiplied by 10,000. The results are normalized to percent inhibition based on control samples: DMSO (0% inhibition) and control compound at a concentration that inhibits completely (100% inhibition). The normalized TR-FRET results are plotted against compound concentration, and the data are fit to a 4-parameter Hill equation to determine the IC50 values.

In a further assay the target is KRAS WT (Homo sapiens (Human), UniProt P01116). The experiment in a line: KRAS WT Biochemical Assay, BODIPY-GDP Exchange TR-FRET (Example 501; 3 nM KRAS WT, 3 nM SOS1, 60-minute incubation). How it is done:
Example 501: KRAS WT Biochemical Assay, BODIPY-GDP Exchange TR-FRET. Biochemical compound potencies are assessed by evaluating inhibition of SOS1-mediated nucleotide exchange in KRAS WT. In this assay, the SOS1-promoted exchange of fluorescently-labeled GDP (BOPIDY-GDP) is monitored by time-resolved fluorescence resonance energy transfer (TR-FRET). Compounds solubilized in DMSO are dispensed as concentration series into 384-well white assay plates, and 5 uL assay buffer (20 mM HEPES, pH 7.5, 50 mM NaCl, 10 mM MgCl2, 0.01% Tween-20 and 1 mM dithiothreitol) is added just prior to the start of the assay. A preformed complex of 3 nM biotin-tagged recombinant human KRAS WT and 0.3 nM terbium-labeled streptavidin (CisBIO) prepared in 5 uL/well assay buffer is added and allowed to incubate for 10-minutes at room temperature. The reaction is initiated with the addition of 5 uL 3 nM recombinant human SOS1 and 300 nM BODIPY-GDP in assay buffer. After a 60-minute incubation, the fluorescence is measured with excitation at 337 nm and emission at 490 and 520 nm. The TR-FRET ratio is determined as the fluorescence at 520 nm divided by the fluorescence at 490 nm multiplied by 10,000. The results are normalized to percent inhibition based on control samples: DMSO (0% inhibition) and control compound at a concentration that inhibits completely (100% inhibition). The normalized TR-FRET results are plotted against compound concentration, and the data are fit to a 4-parameter Hill equation to determine the IC50 values.

[1] abbreviates: read-out: KRas(wt) GDP HTRF IC50.

Molecules are shown by their SMILES. Like-named read-outs stand apart in the source and are kept apart here.

KRAS G12D, sequence (P01116-2 other isoform, or with tags, fused parts or gaps G12D): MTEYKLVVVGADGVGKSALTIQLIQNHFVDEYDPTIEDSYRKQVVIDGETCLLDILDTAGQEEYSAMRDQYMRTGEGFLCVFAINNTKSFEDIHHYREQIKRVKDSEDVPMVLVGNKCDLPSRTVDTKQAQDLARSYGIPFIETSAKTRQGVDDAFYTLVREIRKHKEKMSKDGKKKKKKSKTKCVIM
KRAS WT, sequence (P01116-2 other isoform, or with tags, fused parts or gaps): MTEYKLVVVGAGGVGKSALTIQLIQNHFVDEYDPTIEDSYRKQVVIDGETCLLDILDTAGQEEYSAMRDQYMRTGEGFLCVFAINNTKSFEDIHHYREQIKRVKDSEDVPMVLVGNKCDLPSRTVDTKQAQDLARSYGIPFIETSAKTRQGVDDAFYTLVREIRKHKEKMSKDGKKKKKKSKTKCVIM

With `Cc1cc(N)c(F)c(-c2nc3c4c(nc(OC[C@@]56CCCN5C[C@H](F)C6)nc4c2F)N2C[C@H]4CC[C@H](N4)[C@H]2[C@H](C)O3)c1CC(F)(F)F` [Compound 182, 2-Fluoro-3-((5S,5aS,6S,9R)-1-fluoro-12-(((2R,7aS)-2-fluorotetrahydro-1H-pyrrolizin-7°(5H)-yl)methoxy)-5-methyl-5°,6,7,8,9,10-hexahydro-5H-4-oxa-3,10°,11,13,14-pentaaza-6,9-methanonaphtho[1,8-ab]heptalen-2-yl)-5-methyl-4-(2,2,2-trifluoroethyl)aniline], the IC50 at KRAS G12D was 0.269 nM; at KRAS WT (read-out: KRas HTRF IC50), 0.0339 µM.

With `C[C@@H]1Oc2nc(-c3cncc4cccc(Cl)c34)c(F)c3nc(OC[C@@]45CCCN4C[C@H](F)C5)nc(c23)N2C[C@H]3CC[C@H](N3)[C@@H]12` [Compound 38, (5S,5aS,6S,9R)-2-(5-Chloroisoquinolin-4-yl)-1-fluoro-12-(((2R,7aS)-2-fluorotetrahydro-1H-pyrrolizin-7a(5H)-yl)methoxy)-5-methyl-5a,6,7,8,9,10-hexahydro-5H-4-oxa-3,10a,11,13,14-pentaaza-6,9-methanonaphtho[1,8-ab]heptalene], the IC50 is 13.9 nM at KRAS G12D and 0.697 µM on KRAS WT (setting [1]).

As for `C#Cc1cccc2cc(O)cc(-c3nc4c5c(nc(OC[C@@]67CCCN6C[C@H](F)C7)nc5c3F)N3C[C@H]5CC[C@H](N5)[C@H]3[C@H](C(F)(F)F)O4)c12` [Compound 251, 5-Ethynyl-4-((5R,5aS,6S,9R)-1-fluoro-12-(((2R,7aS)-2-fluorotetrahydro-1H-pyrrolizin-7a(5H)-yl)methoxy)-5-(trifluoromethyl)-5a,6,7,8,9,10-hexahydro-5H-4-oxa-3,10a,11,13,14-pentaaza-6,9-methanonaphtho[1,8-ab]heptalene-2-yl)naphthalen-2-ol], the IC50 was determined as 0.16 nM on KRAS G12D and 0.00105 µM at KRAS WT (read-out: KRas HTRF IC50).

Turning to `C[C@@H]1Oc2nc(-c3cccc4cccc(Cl)c34)c(F)c3nc(OC[C@@]45CCCN4C[C@H](F)C5)nc(c23)N2C[C@H]3CC[C@H](N3)[C@@H]12` [Compound 8, (5S,5aS,6S,9R)-2-(8-chloronaphthalen-1-yl)-1-fluoro-12-(((2R,7aS)-2-fluorotetrahydro-1H-pyrrolizin-7a(5H)-yl)methoxy)-5-methyl-5a,6,7,8,9,10-hexahydro-5H-4-oxa-3,10a,11,13,14-pentaaza-6,9-methanonaphtho[1,8-ab]heptalene], the figures for the IC50 on KRAS G12D and on KRAS WT (setting [1]) were 1.78 nM and 0.146 µM, respectively.

Turning to `Cc1c(F)c(N)cc(-c2nc3c4c(nc(OC[C@@]56CCCN5C[C@H](F)C6)nc4c2F)N2C[C@H]4CC[C@H](N4)[C@H]2C(CF)O3)c1C(F)(F)F` (stereo partly drawn) [Compound 239, 2-Fluoro-5-((5aS,6S,9R)-1-fluoro-5-(fluoromethyl)-12-(((2R,7aS)-2-fluorotetrahydro-1H-pyrrolizin-7a(5H)-yl)methoxy)-5a,6,7,8,9,10-hexahydro-5H-4-oxa-3,10a,11,13,14-pentaaza-6,9-methanonaphtho[1,8-ab]heptalen-2-yl)-3-methyl-4-(trifluoromethyl)aniline], the results for the IC50 on KRAS G12D and at KRAS WT (read-out: KRas HTRF IC50) were 0.58 nM and 0.00094 µM, respectively.

Take `Cc1cc(N)c(F)c(-c2nc3c4c(nc(OC[C@@H]5CC[C@H]6COCCN65)nc4c2F)N2C[C@H]4CC[C@H](N4)[C@H]2[C@H](C)O3)c1CC(F)F` [Compound 231, 4-(2,2-Difluoroethyl)-2-fluoro-3-((5S,5aS,6S,9R)-1-fluoro-12-(((6S,8aS)-hexahydro-1H-pyrrolo[2,1-c][1,4]oxazin-6-yl)methoxy)-5-methyl-5a,6,7,8,9,10-hexahydro-5H-4-oxa-3,10a,11,13,14-pentaaza-6,9-methanonaphtho[1,8-ab]heptalen-2-yl)-5-methylaniline]: the IC50 is 4.6 nM on KRAS G12D and 1.24 µM on KRAS WT (read-out: KRas HTRF IC50).

On to `Cc1c(F)c(N)cc(-c2nc3c4c(nc(OCC5(CN6CC6(C)C)CC5)nc4c2F)N2C[C@H]4CC[C@H](N4)[C@H]2[C@H](C)O3)c1C(F)(F)F` (stereo partly drawn) [Compound 259, 5-((5S,5aS,6S,9R)-12-((1-((2,2-Dimethylaziridin-1-yl)methyl)cyclopropyl)methoxy)-1-fluoro-5-methyl-5a,6,7,8,9,10-hexahydro-5H-4-oxa-3,10a,11,13,14-pentaaza-6,9-methanonaphtho[1,8-ab]heptalen-2-yl)-2-fluoro-3-methyl-4-(trifluoromethyl)aniline], for which the figures for the IC50 on KRAS G12D and against KRAS WT (KRas HTRF IC50 [uM]) were 0.16 nM and 0.00971 µM, respectively.

On to `Cn1ncc2ccc(F)c(-c3nc4c5c(nc(OC[C@@]67CCCN6C[C@H](F)C7)nc5c3F)N3C[C@H]5CC[C@H](N5)[C@H]3CO4)c21` [Compound 4, (5aS,6S,9R)-1-fluoro-2-(6-fluoro-1-methyl-1H-indazol-7-yl)-12-(((2R,7aS)-2-fluorotetrahydro-1H-pyrrolizin-7a(5H)-yl)methoxy)-5a,6,7,8,9,10-hexahydro-5H-4-oxa-3,10a,11,13,14-pentaaza-6,9-methanonaphtho[1,8-ab]heptalene], for which the values for the IC50 at KRAS G12D and on KRAS WT (setting [1]) were 899 nM and 9.57 µM, respectively.

Consider `COC1(C(F)F)CN(CC2(COc3nc4c5c(nc(-c6cc(N)nc(C)c6C(F)(F)F)c(F)c5n3)O[C@@H](C)[C@@H]3[C@@H]5CC[C@H](CN43)N5)CC2)C1` [Compound 271, 4-((5S,5aS,6S,9R)-12-((1-((3-(difluoromethyl)-3-methoxyazetidin-1-yl)methyl)cyclopropyl)methoxy)-1-fluoro-5-methyl-5a,6,7,8,9,10-hexahydro-5H-4-oxa-3,10a,11,13,14-pentaaza-6,9-methanonaphtho[1,8-ab]heptalene-2-yl)-6-methyl-5-(trifluoromethyl)pyridin-2-amine], for which the half-inhibitory concentration (IC50) at KRAS G12D amounted to 0.51 nM; on KRAS WT (read-out: KRas HTRF IC50), 0.0564 µM.

In the case of `Cc1c(F)c(N)cc(-c2nc3c4c(nc(OC[C@@H]5C[C@@H](F)CN5C)nc4c2F)N2C[C@H]4CC[C@H](N4)[C@H]2[C@H](C)O3)c1C(F)(F)F` [Compound 26, 2-Fluoro-5-((5S,5aS,6S,9R)-1-fluoro-12-(((2S,4R)-4-fluoro-1-methylpyrrolidin-2-yl)methoxy)-5-methyl-5a,6,7,8,9,10-hexahydro-5H-4-oxa-3,10a,11,13,14-pentaaza-6,9-methanonaphtho[1,8-ab]heptalen-2-yl)-3-methyl-4-(trifluoromethyl)aniline], the results for the IC50 at KRAS G12D and on KRAS WT (setting [1]) were 0.26 nM and 0.00601 µM, respectively.

In the case of `Cc1nc(N)c(F)c(-c2nc3c4c(nc(OCC5(CN6C[C@H]7C[C@@H]6CO7)CC5)nc4c2F)N2C[C@H]4CC[C@H](N4)[C@H]2[C@H](C)O3)c1C(F)(F)F` [Compound 223, 4-((5S,5aS,6S,9R)-12-((1-(((1R,4R)-2-Oxa-5-azabicyclo[2.2.1]heptan-5-yl)methyl)cyclopropyl)methoxy)-1-fluoro-5-methyl-5a,6,7,8,9,10-hexahydro-5H-4-oxa-3,10a,11,13,14-pentaaza-6,9-methanonaphtho[1,8-ab]heptalene-2-yl)-3-fluoro-6-methyl-5-(trifluoromethyl)pyridin-2-amine], the figures for the IC50 at KRAS G12D and on KRAS WT (read-out: KRas HTRF IC50) were 3.39 nM and 0.0513 µM, respectively.

Turning to `Cc1nc(N)cc(-c2nc3c4c(nc(OC[C@@]56CCCN5C[C@H](F)C6)nc4c2F)N2C[C@H]4CC[C@H](N4)[C@H]2[C@H](C)O3)c1CC(F)F` [Compound 189, 5-(2,2-Difluoroethyl)-4-((5S,5aS,6S,9R)-1-fluoro-12-(((2R,7aS)-2-fluorotetrahydro-1H-pyrrolizin-7a(5H)-yl)methoxy)-5-methyl-5a,6,7,8,9,10-hexahydro-5H-4-oxa-3,10a,11,13,14-pentaaza-6,9-methanonaphtho[1,8-ab]heptalene-2-yl)-6-methylpyridin-2-amine], the IC50 on KRAS G12D amounted to 2.31 nM; at KRAS WT (read-out: KRas HTRF IC50), 0.252 µM.
